From patent US10196373B2, “Substituted 2-hydroxy-4-(2-(phenylsulfonamido)acetamido)benzoic acid analogs as inhibitors of STAT protein” (University of Central Florida Research Foundation, Inc., priority 2010, dated 2019)

The molecules below were run against STAT3 (Homo sapiens (Human), UniProt P40763) (assay: Fluorescence polarization assay, inhibition of binding to STAT3). Settings: inhibition of binding to STAT3 in a fluorescence polarization assay; read-out: Ki (FP).
Description: The fluorescent polarization experiments were performed on an Infinite M1000 (Tecan, Crailsheim, Germany). All assays were performed in the same buffer conditions of 50 mM NaCl, 10 mM Hepes, pH 7.5, 1 mM EDTA, and 2 mM dithiothreitol. Fluorescent-labelled peptides were kept at a final concentration of 10nM in buffered solution. […] of labelled peptides were added to […] of a 300 nM STAT3 protein solution (provided by SignalChem in 50 mM Tris-HCl, pH 7.5, 150 mM NaCl, 0.25 mM DTT, 0.1 mM PMSF, 25% glycerol and stored at −80° C.). Inhibitory molecules were dissolved in pure DMSO and diluted using buffer solution to produce four final concentrations ([…]). 7.5 μL of the inhibitory molecule solution was mixed with the STAT3 protein and labelled peptide solution in black 384-flat well microplates (Coming), and incubated for 15-30 minutes. The M1000 performed a shaking cycle and then read the plates. IC50′s were derived from the output using the curve-fitting software OriginPro 8 (Northampton, MA). The FP data was modelled by the following equation:
[formula] where X was the concentration of inhibitor and ρwas the corresponding fluorescence at that concentration. The free parameter was half the maximal inhibitory concentration (IC50) and the limiting values was the maximal measured fluorescence polarization (ρ1) and the minimal fluorescence polarization (ρ2). Origin curve fitting software utilizes the Levenberg-Marquardt algorithm and reduced chi-square criterion for convergence. The inhibitor dissociation constant, Ki, was calculated from the derived IC50 values, as per the following formula: […]
Further details of the fluorescence polarization assay are as described previously (Zhang X, et al. (2010) A novel small-molecule disrupts Stat3 SH2domainphosphotyrosine interactions and Stat3-dependent tumor processes. Biochem Pharmacol 79: 1398-1409).

Chain of STAT3 (P40763 whole entry): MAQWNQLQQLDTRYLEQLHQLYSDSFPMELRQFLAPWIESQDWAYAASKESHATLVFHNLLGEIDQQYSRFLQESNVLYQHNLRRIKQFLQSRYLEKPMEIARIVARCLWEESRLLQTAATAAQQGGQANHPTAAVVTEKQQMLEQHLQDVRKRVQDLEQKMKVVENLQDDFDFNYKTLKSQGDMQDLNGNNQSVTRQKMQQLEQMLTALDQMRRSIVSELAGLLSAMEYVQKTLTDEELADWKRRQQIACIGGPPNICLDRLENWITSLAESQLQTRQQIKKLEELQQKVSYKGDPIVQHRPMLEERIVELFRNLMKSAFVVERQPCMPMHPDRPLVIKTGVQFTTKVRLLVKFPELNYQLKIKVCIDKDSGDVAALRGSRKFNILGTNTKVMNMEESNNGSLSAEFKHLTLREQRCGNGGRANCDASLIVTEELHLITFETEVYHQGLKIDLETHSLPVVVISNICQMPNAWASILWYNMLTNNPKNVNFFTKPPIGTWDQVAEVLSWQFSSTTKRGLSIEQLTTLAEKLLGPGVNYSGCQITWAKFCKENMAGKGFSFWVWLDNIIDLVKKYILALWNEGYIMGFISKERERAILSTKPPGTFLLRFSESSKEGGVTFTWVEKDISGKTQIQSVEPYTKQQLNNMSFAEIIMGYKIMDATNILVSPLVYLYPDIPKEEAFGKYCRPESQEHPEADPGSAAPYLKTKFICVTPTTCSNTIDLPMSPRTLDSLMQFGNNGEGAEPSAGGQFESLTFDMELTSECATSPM

| SMILES | Ki [µM] |
| --- | --- |
| Cc1ccc(S(=O)(=O)N(CC(=O)N(Cc2ccc(C3CCCCC3)cc2)c2ccc(C(=O)O)c(O)c2)Cc2ccc(C(F)(F)F)cc2)cc1 [XW1-059] | 4.6 ± 1.6 |
| Cc1ccc(S(=O)(=O)N(CC(=O)N(Cc2ccc(C3CCCCC3)cc2)c2ccc(C(=O)O)c(O)c2)Cc2cccc(Cl)c2)cc1 [SH3-077] | 3 ± 4.1 |
| CCOC(=O)c1ccc(CN(CC(=O)N(Cc2ccc(C3CCCCC3)cc2)c2ccc(C(=O)O)c(O)c2)S(=O)(=O)c2ccc(C)cc2)cc1 [XW1-053] | 3.8 ± 1.5 |
| Cc1ccc(S(=O)(=O)N(CC(=O)N(Cc2ccc(C3CCCCC3)cc2)c2ccc(C(=O)O)c(O)c2)Cc2ccc(OC(F)(F)F)cc2)cc1 [XW1-077] | 5.9 ± 0.6 |
| Cc1ccc(S(=O)(=O)N2CCC[C@@H]2C(=O)N(Cc2ccc(C3CCCCC3)cc2)c2ccc(C(=O)O)c(O)c2)cc1 [BP2-032] | > 50 |
| Cc1ccc(S(=O)(=O)N(CC(=O)N(Cc2ccc(C3CCCCC3)cc2)c2ccc(C(=O)O)c(O)c2)Cc2cccc(C(F)(F)F)c2)cc1 [XW1-079] | 5.1 ± 0.4 |
| Cc1ccc(S(=O)(=O)N(CC(=O)N(Cc2ccc(C3CCCCC3)cc2)c2ccc(C(=O)O)c(O)c2)Cc2ccc(F)cc2C(F)(F)F)cc1 [XW1-075] | 5.5 ± 0.4 |
| Cc1ccc(S(=O)(=O)N(CC(=O)N(Cc2ccc(C3CCCCC3)cc2)c2ccc(C(=O)O)c(O)c2)CC(C)C)cc1 [BP2-046] | 8.3 ± 0.3 |
| Cc1ccc(S(=O)(=O)N(CC(=O)N(Cc2ccc(C3CCCCC3)cc2)c2ccc(C(=O)O)c(O)c2)Cc2ccccc2C)cc1 [BP2-047] | 2.6 ± 0.2 |
| Cc1ccc(S(=O)(=O)N(CC(=O)N(Cc2ccc(C3CCCCC3)cc2)c2ccc(C(=O)O)c(O)c2)Cc2ccc(F)cc2)cc1 [BP2-065] | 3.8 ± 1.6 |
| Cc1ccc(S(=O)(=O)N(CC(=O)N(Cc2ccc(C3CCCCC3)cc2)c2ccc(C(=O)O)c(O)c2)Cc2ccccc2F)cc1 [BP2-067] | 5.3 ± 0.3 |
| Cc1ccc(S(=O)(=O)N(CC(=O)N(Cc2ccc(C3CCCCC3)cc2)c2ccc(C(=O)O)c(O)c2)Cc2c(F)c(F)c(F)c(F)c2F)cc1 [BP2-068] | 4.5 ± 1.9 |
| Cc1ccc(S(=O)(=O)N(C)CC(=O)N(Cc2ccc(C3CCN(C(=O)OC(C)(C)C)CC3)cc2)c2ccc(C(=O)O)c(O)c2)cc1 [Compound 27KC, 4-(N-(4-(1-(tert-butoxycarbonyl)piperidin-4-yl)benzyl)-2-(N,4-dimethylphenylsulfon-amido)acetamido)-2-hydroxybenzoic acid] | 18.7 ± 1.4 |
| Cc1ccc(S(=O)(=O)N(CC(=O)N(Cc2ccc(C3CCCCC3)cc2)c2ccc(C(=O)O)c(O)c2)Cc2ccc(SC(F)(F)F)cc2)cc1 [XW1-057] | 4.8 ± 0.6 |
| COC(=O)c1cccc(CN(CC(=O)N(Cc2ccc(C3CCCCC3)cc2)c2ccc(C(=O)O)c(O)c2)S(=O)(=O)c2ccc(C)cc2)c1 [XW1-081] | 9.2 ± 0.8 |
| Cc1ccc(S(=O)(=O)N(CC(=O)N(Cc2ccc(C3CCCCC3)cc2)c2ccc(C(=O)O)c(O)c2)Cc2c(F)c(F)cc(F)c2F)cc1 [BP2-121] | 11.4 ± 0.4 |
| Cc1ccc(S(=O)(=O)N2CCC[C@H]2C(=O)N(Cc2ccc(C3CCCCC3)cc2)c2ccc(C(=O)O)c(O)c2)cc1 [BP2-029] | 33 ± 22 |
| CCCN(CC(=O)N(Cc1ccc(C2CCCCC2)cc1)c1ccc(C(=O)O)c(O)c1)S(=O)(=O)c1ccc(C)cc1 [BP2-033] | 8.9 ± 1.4 |
| COC(=O)c1ccc(CN(CC(=O)N(Cc2ccc(C3CCCCC3)cc2)c2ccc(C(=O)O)c(O)c2)S(=O)(=O)c2ccc(C)cc2)cc1 [XW1-083] | 5.8 ± 0.6 |
| Cc1ccc(S(=O)(=O)N(CC(=O)N(Cc2ccc(C3CCCCC3)cc2)c2ccc(C(=O)O)c(O)c2)Cc2ccc([N+](=O)[O-])cc2)cc1 [BP3-014] | 5.5 ± 3.7 |
| Cc1ccc(S(=O)(=O)N(CC(=O)N(Cc2ccc(C3CCCCC3)cc2)c2ccc(C(=O)O)c(O)c2)Cc2cc(F)c(F)c(F)c2F)cc1 [BP2-120] | 11.1 ± 0.6 |
| C=CCN(CC(=O)N(Cc1ccc(C2CCCCC2)cc1)c1ccc(C(=O)O)c(O)c1)S(=O)(=O)c1ccc(C)cc1 [BP2-125] | 27.9 ± 5 |
| Cc1ccc(S(=O)(=O)N(CC(=O)N(Cc2ccc(C3CCCCC3)cc2)c2ccc(C(=O)O)c(O)c2)Cc2ccccc2N)cc1 [BP3-018] | 12 ± 0.5 |
